Test results as given in PubChem BioAssay (NCI).
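Five compound concentrations were applied to cells in 96-well plates for 48 hours; endpoints were derived by simple linear interpolation of the resulting dose-response curve. GI50 is the concentration that inhibits growth by half. TGI is the concentration that stops growth completely.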

Columns and labels:
Experiment in all cases: DTP human tumour cell line panel, 48 h
[1] = tested on: 786-0 renal
[2] = tested on: A498 renal
[3] = tested on: A549 NSCLC
[4] = tested on: ACHN renal
[5] = tested on: BT-549 breast
[6] = tested on: CAKI-1 renal
[7] = tested on: CCRF-CEM leukemia
[8] = tested on: COLO 205 colon
[9] = tested on: DU-145 prostate
[10] = tested on: EKVX NSCLC
[11] = tested on: HCC-2998 colon
[12] = tested on: HCT-116 colon
[13] = tested on: HCT-15 colon
[14] = tested on: HL-60(TB) leukemia
[15] = tested on: HOP-62 NSCLC
[16] = tested on: HOP-92 NSCLC
[17] = tested on: HS 578T breast
[18] = tested on: HT29 colon
[19] = tested on: IGROV1 ovarian
[20] = tested on: K-562 leukemia
[21] = tested on: KM12 colon
[22] = tested on: LOX IMVI melanoma
[23] = tested on: M14 melanoma
[24] = tested on: MALME-3M melanoma
[25] = tested on: MCF7 breast
[26] = tested on: MDA-MB-231 breast
[27] = tested on: MDA-MB-435
[28] = tested on: MOLT-4 leukemia
[29] = tested on: NCI-H226 lung
[30] = tested on: NCI-H23 lung
[31] = tested on: NCI-H460 lung
[32] = tested on: NCI-H522 lung
[33] = tested on: NCI/ADR-RES ovarian
[34] = tested on: OVCAR-3 ovarian
[35] = tested on: OVCAR-4 ovarian
[36] = tested on: OVCAR-5 ovarian
[37] = tested on: OVCAR-8 ovarian
[38] = tested on: PC-3 prostate
[39] = tested on: RPMI-8226 leukemia
[40] = tested on: RXF 393 renal
[41] = tested on: SF-268 CNS
[42] = tested on: SF-295 CNS
[43] = tested on: SF-539 CNS
[44] = tested on: SK-MEL-2 melanoma
[45] = tested on: SK-MEL-28 melanoma
[46] = tested on: SK-MEL-5 melanoma
[47] = tested on: SK-OV-3 ovarian
[48] = tested on: SN12C renal
[49] = tested on: SNB-19 CNS
[50] = tested on: SNB-75 CNS
[51] = tested on: SW-620 colon
[52] = tested on: T-47D breast
[53] = tested on: TK-10 renal
[54] = tested on: U251 CNS
[55] = tested on: UACC-257 melanoma
[56] = tested on: UACC-62 melanoma
[57] = tested on: UO-31 renal

SMILES: CC([C@H]1CCC2C3CCC4C[C@@H](N)CC[C@]4(C)C3CC[C@@]21C)N(C)C (some centres undefined)
- GI50 [1]: 4.99 µM
- TGI [1]: 11.6 µM
- GI50 [2]: 9.69 µM
- TGI [2]: 25.9 µM
- GI50 [3]: 8.45 µM
- TGI [3]: 24.7 µM
- GI50 [4]: 8.99 µM
- TGI [4]: 21.6 µM
- GI50 [5]: 5.9 µM
- TGI [5]: 28.1 µM
- GI50 [6]: 5.67 µM
- TGI [6]: 18.1 µM
- GI50 [7]: 6.69 µM
- TGI [7]: 23.3 µM
- GI50 [8]: 1.89 µM
- TGI [8]: 4.37 µM
- GI50 [9]: 14.3 µM
- TGI [9]: > 48.4 µM
- GI50 [10]: 13.8 µM
- TGI [10]: 54.8 µM
- GI50 [11]: 12.8 µM
- TGI [11]: 26.3 µM
- GI50 [12]: 1.9 µM
- TGI [12]: 5.02 µM
- GI50 [13]: 1.59 µM
- TGI [13]: 4.72 µM
- GI50 [14]: 5.55 µM
- TGI [14]: 13.2 µM
- GI50 [15]: 6.1 µM
- TGI [15]: 12 µM
- GI50 [16]: 4.53 µM
- TGI [16]: 25.9 µM
- GI50 [17]: 3.35 µM
- TGI [17]: 16.1 µM
- GI50 [18]: 1.29 µM
- TGI [18]: 5.59 µM
- GI50 [19]: 8.88 µM
- TGI [19]: 35 µM
- GI50 [20]: 2.27 µM
- TGI [20]: 7.34 µM
- GI50 [21]: 7.55 µM
- TGI [21]: 21.4 µM
- GI50 [22]: 1.61 µM
- TGI [22]: 3.44 µM
- GI50 [23]: 1.79 µM
- TGI [23]: 3.54 µM
- GI50 [24]: 1.88 µM
- TGI [24]: 5.11 µM
- GI50 [25]: 4.17 µM
- TGI [25]: 18.1 µM
- GI50 [26]: 5.72 µM
- TGI [26]: 16.5 µM
- GI50 [27]: 2.26 µM
- TGI [27]: 5.27 µM
- GI50 [28]: 5.02 µM
- TGI [28]: 17.2 µM
- GI50 [29]: 12.4 µM
- TGI [29]: > 45.9 µM
- GI50 [30]: 13.8 µM
- TGI [30]: 37.2 µM
- GI50 [31]: 2.4 µM
- TGI [31]: 6.04 µM
- GI50 [32]: 7.25 µM
- TGI [32]: 21.3 µM
- GI50 [33]: 15.1 µM
- TGI [33]: 48.7 µM
- GI50 [34]: 6.96 µM
- TGI [34]: 21.2 µM
- GI50 [35]: 9.12 µM
- TGI [35]: 38.9 µM
- GI50 [36]: 17.5 µM
- TGI [36]: 41.4 µM
- GI50 [37]: 15.7 µM
- TGI [37]: > 53.6 µM
- GI50 [38]: 8.52 µM
- TGI [38]: 33 µM
- GI50 [39]: 3.04 µM
- TGI [39]: 11.7 µM
- GI50 [40]: 4.55 µM
- TGI [40]: 14.9 µM
- GI50 [41]: 3.34 µM
- TGI [41]: 11.7 µM
- GI50 [42]: 6.46 µM
- TGI [42]: 22.5 µM
- GI50 [43]: 2.01 µM
- TGI [43]: 4.98 µM
- GI50 [44]: 8.45 µM
- TGI [44]: 21.3 µM
- GI50 [45]: 1.91 µM
- TGI [45]: 3.66 µM
- GI50 [46]: 1.95 µM
- TGI [46]: 5.23 µM
- GI50 [47]: 13.4 µM
- TGI [47]: 30.4 µM
- GI50 [48]: 8.17 µM
- TGI [48]: 25.7 µM
- GI50 [49]: 15.8 µM
- TGI [49]: 32.7 µM
- GI50 [50]: 8.15 µM
- TGI [50]: 24.9 µM
- GI50 [51]: 2.74 µM
- TGI [51]: 7.73 µM
- GI50 [52]: 3.23 µM
- TGI [52]: 17.9 µM
- GI50 [53]: 12 µM
- TGI [53]: 28.3 µM
- GI50 [54]: 3.61 µM
- TGI [54]: 15.6 µM
- GI50 [55]: 2.4 µM
- TGI [55]: 5.42 µM
- GI50 [56]: 2.36 µM
- TGI [56]: 5.67 µM
- GI50 [57]: 2.34 µM
- TGI [57]: 7.74 µM
